Experimental data: patent publication US4673684A, “Amide derivatives and 5-lipoxygenase inhibitors containing the same as an active ingredient” (Terumo Corporation, priority 1984, dated 1987)

Target: T1, 5-lipoxygenase (Mus musculus, UniProt P48999)
T1 construct: The supernatant is used as a 5-lipogenase enzyme solution; endogenous in cells
T1 sequence (P48999 1-674): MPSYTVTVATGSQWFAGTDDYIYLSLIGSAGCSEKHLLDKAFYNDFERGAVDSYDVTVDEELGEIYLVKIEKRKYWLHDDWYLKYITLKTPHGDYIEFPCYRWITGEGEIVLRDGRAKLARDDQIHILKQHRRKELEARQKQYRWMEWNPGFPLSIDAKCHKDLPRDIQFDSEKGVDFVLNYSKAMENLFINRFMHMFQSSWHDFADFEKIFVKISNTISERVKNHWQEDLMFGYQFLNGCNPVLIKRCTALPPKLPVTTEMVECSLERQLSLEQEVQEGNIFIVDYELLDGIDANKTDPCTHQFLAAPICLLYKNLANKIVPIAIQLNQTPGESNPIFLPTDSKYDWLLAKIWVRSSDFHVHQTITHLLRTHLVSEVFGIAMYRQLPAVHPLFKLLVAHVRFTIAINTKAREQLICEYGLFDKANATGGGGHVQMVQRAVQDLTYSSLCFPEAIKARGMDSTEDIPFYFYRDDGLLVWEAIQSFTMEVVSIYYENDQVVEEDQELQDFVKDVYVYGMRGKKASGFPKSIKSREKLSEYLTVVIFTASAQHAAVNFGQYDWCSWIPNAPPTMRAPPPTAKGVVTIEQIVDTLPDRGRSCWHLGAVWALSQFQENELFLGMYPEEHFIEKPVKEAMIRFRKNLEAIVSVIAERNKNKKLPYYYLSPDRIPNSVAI
Assay: 5-Lipoxygenase-inhibiting Activity (decrease in 5-HETE and LTB4 formed from radiolabelled arachidonic acid, enzyme solution from mouse mastcytoma cells P-815)
Type: biochemical
Settings: 5-HETE and LTB4 formation; mouse mastcytoma P-815 enzyme solution; 37° C., 5 min; pH 7.4; with indomethacin; read-out: 50% Inhibitory concentration IC50
Description: Mouse mastcytoma cells P-815 are diluted in a culture solution, containing 90% Eagle Basic Medium (manufactured by Gibco Laboratories) to 5×10^4 cells/ml. The diluted solution is cultivated with shaking in air at 37° C. for 48 hours. Then, the culture solution is cooled with ice and centrifuged to collect the cells. The cells are suspended in a phosphate buffer solution at pH 7.4 at a concentration of 2×10^7 cells/ml. The suspension is treated in a ultrasonic cell disintegrater and then centrifuged at 10,000 r.p.m. for 10 min. The supernatant is used as a 5-lipogenase enzyme solution. In test tubes are placed 20 μl of radiolabelled arachidonic acid ([…]), indomethacin (2×10^-8 mol) and an amide derivative to be tested, respectively. To each of the test tubes are added 0.45 ml of a phosphate buffer solution, 0.45 ml of the above-prepared suspension, 0.45 ml of the above-prepared enzyme solution and 0.1 ml of 8 mM CaCl2 (calcium chloride). The mixture is reacted at 37° C. for 5 min. After cooled with ice, 60 μl of 1N-HCl (hydrochloric acid is added to the reaction mixture, which is then extracted with 8 ml of ethyl acetate. The extract is concentrated, and the concentrate is developed by spotting on a silica gel thin layer plate (Merck 60F 254). Measurement of the inhibitory activity is made by collecting fractions corresponding to lipoxygenase products 5-HETE (5(s)-hydroxy-6,8,11,14-eicosatetraenic acid) and LTB4 (leucotriene B4) and determining the radioactivity by a liquid scintillation counter. The lipoxygenase inhibiting activity is determined by decrease in the amount of the above-mentioned 5-lipoxygenaseproducts. […] 50% inhibitory concentration or 30% inhibitory concentration as indicated in the table means the concentration of an amide derivative required for reducing the amount of the above-mentioned 5-lipoxygenase products (5-HETE and LTB4) to 50% or 30% of the amount when the amount of 5-HETE and LTB4 produced in the absenced of the amide derivative is 100%.

SMILES | IC50
CC/C=C\C/C=C\C/C=C\CCCCCCCC(=O)NCCCCNC(=O)/C=C/C=C/c1ccc(O)c(OC)c1 [Example 19, N-{5-(3-methoxy-4-hydroxyphenyl)-2,4-pentadienoyl}-N'-9,12,15-octadecatrienoyl-1,4-diaminobutane] | 200 nM
CC(=O)NCCCCNC(=O)/C=C/C=C/c1ccc(O)c(O)c1 [Example 20, N-{5-(3,4-dihydroxyphenyl)-2,4-pentadienoyl}-N'-acetyl-1,4-diaminobutane] | 1000 nM
O=C(/C=C/C=C/c1ccc(O)c(O)c1)NCCCCNC(=O)/C=C/C=C/c1ccc(O)c(O)c1 [Example 21, N,N'-di[5-(3,4-dihydroxyphenyl)-2,4-pentadienoyl]-1,4-diaminobutane] | 30 nM
CC/C=C\C/C=C\C/C=C\C/C=C\C/C=C\C/C=C\CCC(=O)NCCCCNC(=O)/C=C/C=C/c1ccc(O)c(O)c1 [Example 22, N-5-(3,4-dihydroxyphenyl)-2,4-pentadienoyl-N'-4,7,10,13,16,19-docosahexaenoyl-1,4-diaminobutane] | 40 nM
CC/C=C\C/C=C\C/C=C\CCCCCCCC(=O)NCCCCNC(=O)/C=C/C=C/c1ccc(O)c(O)c1 [Example 23, N-5-(3,4-dihydroxyphenyl)2,4-pentadienoyl-N'-9,12,15-octadecatrienoyl-1,4-diaminobutane] | 20 nM
O=C(/C=C/C=C/c1ccc(O)c(O)c1)N1CCN(C(c2ccccc2)c2ccccc2)CC1 [Example 26] | 40 nM
O=C(/C=C/C=C/c1ccc(O)c(O)c1)NCCN1CCN(C(c2ccccc2)c2ccccc2)CC1 [Example 27, N-benzhydryl-N'-[2-{5-(3,4-dihydroxyphenyl)-2,4-pentadienoyl}aminoethyl]piperazine] | 7 nM
O=C(/C=C/C=C/c1ccc(O)c(O)c1)NCCN1CCN(C(c2ccccc2)c2ccc(Cl)cc2)CC1 (stereo not drawn) [Example 28] | 10 nM
COc1cc(/C=C/C(=O)NCCCN2CCN(C(c3ccccc3)c3ccccc3)CC2)ccc1O [Example 34] | 300 nM
COc1cc(/C=C/C(=O)NCCN2CCN(C(=O)c3ccccc3N)CC2)ccc1O [Example 36, N-(o-aminobenzoyl)-N'-[2-[3-[3-methoxy-4-hydroxyphenyl)-2-propenoyl]aminoethyl]piperazine] | 200000 nM
O=C(/C=C/c1ccc(O)c(O)c1)NCCCN1CCN(C(c2ccccc2)c2ccccc2)CC1 [Example 37, N-benzhydryl-N'-[{3-(3,4-dihydroxyphenyl)-2-propenoyl}-aminopropyl]piperazine] | 30 nM
COc1cc(/C=C/C=C/C(=O)NCCCN2CCN(C(c3ccccc3)c3ccccc3)CC2)ccc1O [Example 38, N-[3-[5-(3-methoxy-4-hydroxyphenyl)-2,4-pentadienoyl]aminopropyl]-N'-benzhydrylpiperazine] | 200 nM
COc1cc(/C=C/C=C/C(=O)NCCN2CCN(C)CC2)ccc1O [Example 40] | 10000 nM
O=C(/C=C/C=C/c1ccc(O)c(O)c1)NCCCN1CCN(C(c2ccccc2)c2ccccc2)CC1 [Example 44, N-benzhydryl-N'-[[5-{3,4-dihydroxyphenyl)-2,4-pentadienoyl}aminopropyl]piperazine] | 80 nM
O=C(/C=C/C=C/c1ccc(O)c(O)c1)NCCCN1CCN(C(c2ccccc2)c2ccc(Cl)cc2)CC1 (stereo not drawn) [Example 45, N-(p-chlorobenzhydryl)-N'-[{5-(3,4-dihydroxyphenyl)-2,4-pentadienoyl}-aminopropyl]piperazine] | 60 nM
COc1ccc(/C=C/C=C/C(=O)NCCCN2CCN(C(c3ccccc3)c3ccccc3)CC2)cc1OC [Example 47, N-[3-[5-(3,4-dimethoxyphenyl)-2,4-pentadienoyl]-aminopropyl]-N'-benzhydrylpiperazine] | 4000 nM
COc1ccc(/C=C/C=C/C(=O)NCCN2CCN(C(=O)c3ccccc3N)CC2)cc1OC [Example 48, N-(o-aminobenzoyl)-N'-[{5-(3,4-dimethoxyphenyl)-2,4-pentadienoyl}aminoethyl]piperazine] | 6000 nM
COc1cc(/C=C/C(=O)NCCN2CCN(C(c3ccccc3)c3ccc(Cl)cc3)CC2)cc(OC)c1O (stereo not drawn) [Example 49] | 40 nM
COc1cc(/C=C/C(=O)Nc2ccccc2C(=O)O)cc(OC)c1O [Example 51, N-[3-(3,5-dimethox-4-hydroxyphenyl)propenoyl]anthranilic acid] | 1000 nM
COc1cc(/C=C/C(=O)NCCN2CCN(C(c3ccccc3)c3ccccc3)CC2)cc(OC)c1OC [Example 52, N-benzhydryl-N'-[3-(3',4',5'-trimethoxy)phenyl-2-propenoyl]aminoethylpiperazine] | 10000 nM
COc1cc(/C=C/C=C/C(=O)NCCN2CCN(C(c3ccccc3)c3ccccc3)CC2)cc(OC)c1O [Example 53, N-[2-[5-(3,5-dimethoxy-4-hydroxyphenyl)-2,4-pentadienoyl]aminoethyl]-N'-benzhydrylpiperazine] | 20 nM
COc1cc(/C=C/C=C/C(=O)NCCN2CCN(C(c3ccccc3)c3ccc(Cl)cc3)CC2)cc(OC)c1O (stereo not drawn) [Example 54, N-(p-chlorobenzhydryl)-N'-[2-{5-(3,5-dimethoxy-4-hydroxyphenyl)-2,4-pentadienoyl}aminoethyl]piperazine] | 20 nM
COc1cc(/C=C/C=C/C(=O)NCCCN2CCN(C(c3ccccc3)c3ccccc3)CC2)cc(OC)c1O [Example 55] | 30 nM

Further lines, results first:

IC50 | SMILES
6000 nM | COc1cc(/C=C/C=C/C(=O)NCCCCNC(C)=O)ccc1O [Example 18, N-{5-(3-methoxy-4-hydroxyphenyl)-2,4-pentadienoyl}-N'-acetyl-1,4-diaminobutane]
100 nM | O=C(/C=C/C=C/c1ccc(O)c(O)c1)Nc1ccccc1C(=O)O [Example 24, N-5-(3,4-dihydroxyphenyl)-2,4-pentadienoylanthranilic acid]
80 nM | O=C(/C=C/C=C/c1ccc(O)c(O)c1)Nc1ccc(O)cc1 [Example 25, N-5-(3,4-dihydroxyphenyl)-2,4-pentadienoylaminophenol]
20000 nM | COc1cc(/C=C/C(=O)NCCCCNC(=O)c2ccccc2N)ccc1O [Example 35, N-3-[3-methoxy-4-hydroxy]pyenyl-2-butenoyl-N'-(2-amino)benzoylptolesine]
100 nM | COc1cc(/C=C/C=C/C(=O)NCCCN2CCN(C(c3ccccc3)c3ccc(Cl)cc3)CC2)ccc1O (stereo not drawn) [Example 39, N-(p-chlorobenzhydryl)-N'-[3-{5-(3-methoxy-4-hydroxyphenyl)-2,4-pentadienoyl)aminopropyl]piperazine]
200 nM | COc1cc(/C=C/C=C/C(=O)NCc2c(COC(=O)c3ccc(C)cc3)cnc(C)c2O)ccc1O [Example 41, 4-[5-(3-methoxy-4-hydroxyphenyl)-2,4-pentadienoyl]-aminomethyl-3-hydroxy-2-methyl-5-toluoxymethylpyridine]
2000 nM | COc1cc(/C=C/C=C/C(=O)NCCN2CCN(C(=O)c3ccccc3N)CC2)ccc1O [Example 42, N-(o-aminobenzoyl)-N'-[{5-(3-methoxy-4-hydroxyphenyl)-2,4-pentadienoyl}aminoethyl]piperazine]
300 nM | COc1cc(/C=C/C=C/C(=O)NCCCCNC(=O)c2ccccc2N)ccc1O [Example 43, N-5-(3-methoxy-4-hydroxy)phenyl-2,4-pentadienoyl-N'-(2-amino)-benzoyl putrescine]
80 nM | Cc1ccc(C(=O)OCc2cnc(C)c(O)c2CNC(=O)/C=C/C=C/c2ccc(O)c(O)c2)cc1 [Example 46]
6000 nM | COc1cc(/C=C/C(=O)NCc2c(CO)cnc(C)c2O)cc(OC)c1O [Example 50, 4-[3-(3,5-dimethoxy-4-hydroxyphenyl)-2-propenoyl]aminomethyl-3-hydroxy-5-hydroxymethyl-2-methylpyridine]
